Reference: US20240130988A1, “Use of stilbene compounds in the preparation of anti-tumor drugs” (Guangzhou AnHao Pharmaceutical Technology CO., LTD., priority 2022, published 2024)
Like-named read-outs stand apart in the source and are kept apart here.

Legend:
[1] = test system: LLC (mouse lung cancer cells); experiment: Enrichment of CD8+ cytotoxic T lymphocytes in tumor tissue, Lewis non-small cell lung cancer model of mice; assay type: in vivo; details: 400 mg/kg ip once a day for 10 days, CD8+ immunohistochemistry
[2] = test system: human liver cancer QGY7703; experiment: Human liver cancer QGY7703 transplanted tumor in nude mice; assay type: in vivo, BALB/C nude mice; set-up: key to RTV (d 18): RTV = Vt/Vo, tumor volume relative to volume at grouping (d1); details: for inhibition in vivo at 100 mg/kg: Mus musculus, read-out: Tumor inhibitory rate %
Procedure: A human liver cancer QGY7703 model transplanted into nude mice was used in the experiment to investigate the anti-tumor effect of test compounds. The mice were intravenously injected at a dosage of 100 mg/kg for 14 days, and the tumor inhibition rate against human liver cancer QGY7703 was measured.
Preparation: The compound was prepared as the injection at the desired concentration with sterile normal saline, prior to administration.
Animal strain: BALB/C nude mice (SPF grade), weight: 19-21 g, gender: male. Number of animals in each treatment group: 8; number of animals in the control group: >12.
The tumor blocks of human liver cancer QGY7703 with good growth were cut into uniform small pieces of 3 mm under sterile conditions, and then subcutaneously inoculated into the right armpit of each mouse with a cannula. These mice were divided into 9 groups, 8 mice for each treatment group, while more than 12 mice were included in the control group.
14 days after inoculation, the average volume of the tumor block was about 100 mm^3. The animals were regrouped based on the size of the tumor, and the animals with tumors that were too large and too small were sifted out. For each group, the average volume of tumors was basically the same, and then the mice were initially treated with test compounds. The mice in the treatment groups were intravenously injected once a day for 14 days, at a dosage of 0.1 mL/20 g body weight; the mice in the control group were given the same volume of sterile normal saline. From the 14th day of inoculation, the long diameter a (mm) of the tumor, together with the perpendicular short diameter b (mm), was measured using a digital electronic caliper, twice a week. The calculation formula of tumor volume is: TV=ab^2/2, and the formula for calculating the relative tumor volume is RTV=Vt/Vo, wherein Vo denotes the tumor volume measured when the mice were divided into groups (i.e. d1), and Vt is the tumor volume from each measurement.
The result determination is based on the following formula: […]

[3] = test system: human liver cancer QGY7703; experiment: Compound 6 combined with T cells, human liver cancer QGY7703 model in NOG mice; assay type: in vivo; details: 8 × 10^6 T cells sc, compound 6 200 mg/kg ip, or both
Procedure: Experimental method: QGY7703 tumor cells were washed twice with PBS, and then resuspended with PBS:Matrix (1:1 mixture by volume). The cell concentration was adjusted to 2.5×10^6/mL, and subcutaneously inoculated to the right armpit of experimental animals at 200 μL/mouse, i.e. 5×10^5 cells/mouse. When the tumor grew to about 50 mm^3, the mice were divided into groups for administration.
T cell culture and harvest: PBMCs of donors were activated and expanded in vitro according to the standard operating procedures for T cell culture. The cells in logarithmic growth phase were harvested and suspended in the medium at a moderate dose (2×10^7/mL) for future use.
T cells were administrated by subcutaneous injection, and the injection site was the same as the inoculation site of tumor cells.
The general conditions, body weight, tumor volume, and tumor weight of mice were recorded every 3 days. Based on the status of the tumor, whether EAL was further injected was decided.
The effect of combined medicaments was evaluated based on the Q value calculated by Jin's formula: […]
Ea+b represents the tumor inhibitory rate of the combined medicaments, while Ea and Eb represent the tumor inhibitory rates of medicament A and medicament B, respectively.

[4] = test system: human lung cancer 95D and human liver cancer Bel7404; experiment: In vivo vascular necrosis of tumors, PCNA immunohistochemistry; set-up: species or system nude mice; details: 400 mg/kg
human lung cancer A549 = experiment: Compound 8 combined with carboplatin, human lung cancer A549 xenograft in nude mice; assay type: in vivo; details: ip: carboplatin 10 mg/kg, compound 8 200 mg/kg, combination 10 + 200
Description: Experimental method: The model of human lung cancer A549 transplant tumor in nude mice was established by subcutaneously inoculating human lung cancer A549 cell lines into the armpits of nude mice. Cells were inoculated in an amount of 1×10^6, and after formation of the transplanted tumors by inoculation, the cells were passed 3 generations in nude mice before use. The vigorous growth of tumor tissue was cut into approximate 1.5 mm^3, and homogenized under sterile conditions, to prepare 1×10^7/mL of cell suspension. 0.1 mL of cell suspension was subcutaneously inoculated into the right armpit of nude mice. For transplanted tumors in nude mice, the diameter was measured with vernier caliper. After the tumor grew to 100 mm^3, the animals were randomly divided into groups, with 6 mice in each group. Using the method of measuring tumor diameter, the anti-tumor effect of test compound was dynamically Observed. Compound 8 was administered at 200 mg/kg by intraperitoneal injection, once every other day, for three weeks; carboplatin was administered at 10 mg/kg by intraperitoneal injection, once every other day, for three weeks. The measurement frequency of tumor diameter was once every three days. The dosage by volume was 0.1 mL/20 g. The mice in the negative control group were given an equal amount of physiological saline by intravenous injection. The effect of combined medicaments was evaluated based on the Q value calculated by Jin's formula: […]
Ea+b represents the tumor inhibitory rate of the combined medicaments, while Ea and Eb represent the tumor inhibitory rates of medicament A and medicament B, respectively. For example, the Q value of 0.85-1.15 means additive action (+), while the Q value of >1.15 means synergistic action (++).

[5] = QGY-7703, QGY7703, 100 mg/kg iv × 14

Row | SMILES | inhibition in vivo at 100 mg/kg ([2]; QGY-7703, iv) [%] | RTV (d 18) ([2]; QGY7703, 100 mg/kg iv × 14) | The ratio of distribution area in tumor tissues (%) [1] [%] | further results
1 | COc1ccc(/C=C(/C(=O)O)c2cc(OC)c(OC)c(OC)c2)c(O)c1O [Compound 1, (E)-3-(2,3-dihydroxy-4-methoxyphenyl)-2-(3,4,5-trimethoxylphenyl)acrylic acid] |  |  |  | The ratio of distribution area in tumor tissues (%) ([1]; 400 mg/kg): 6.265 ± 0.3673%
2 | COc1cc(/C=C(/C(=O)O)c2cc(OC)c(OC)c(OC)c2)cc(OC)c1 [Compound 3, (E)-3-(3,5-dimethoxyphenyl)-2-(3,4,5-trimethoxyphenyl)acrylic acid] | 63.7 | 4.67 ± 0.63 |  | 
3 | COc1ccc(/C=C(/C(=O)O)c2cc(OC)c(OC)c(OC)c2)cc1F [Compound 4, (E)-3-(3-fluoro-4-methoxyphenyl)-2-(3,4,5-trimethoxyphenyl)acrylic acid] | 60.3 | 5.11 ± 0.76 |  | 
4 | COc1ccc(/C=C(/C(=O)O)c2cc(OC)c(OC)c(OC)c2)cc1O [Compound 6, (E)-3-(3-hydroxy-4-methoxyphenyl)-2-(3,4,5-trimethoxyphenyl)acrylic acid] |  | 3.65 ± 0.47 | 7.249 ± 0.6689 | RTV(d 32) [3]: 19.62 ± 3.17; Terminal weight [3]: 24.5 ± 0.9 g; Tumor inhibitory rate % [3]: 39.61%; inhibition in vivo at 100 mg/kg [2, 5]: 71.6%; Tumor inhibitory rate % ([2]; QGY7703, 100 mg/kg iv × 14): best inhibitory effect on liver cancer; Damage to the blood vessels of tumors (PCNA immunohistochemistry) ([4]; 4 h after oral administration): only some vascular endothelial cells proliferated in the tumor tissues; Damage to the blood vessels of tumors (PCNA immunohistochemistry) ([4]; 24 h after oral administration): massive blood flow blockade and necrosis of tumor tissues
5 | COc1cc(/C(=C\c2cc(O)c(OC)c(F)c2)C(=O)O)cc(OC)c1OC [Compound 8, (E)-3-(5-fluoro-3-hydroxy-4-methoxyphenyl)-2-(3,4,5-trimethoxyphenyl)acrylic acid] |  |  | 6.543 ± 0.7256 | RTV (d 21) (human lung cancer A549): 4.85 ± 1.37; Tumor inhibitory rate % (human lung cancer A549): 62.32%
6 | COc1ccc(/C=C(/C(=O)O)c2cc(OC)c(OC)c(OC)c2)c(F)c1O [Compound 9, (E)-3-(2-fluoro-3-hydroxy-4-methoxyphenyl)-2-(3,4,5-trimethoxyphenyl)acrylic acid] |  | 4.67 ± 0.58 | 6.258 ± 0.6573 | inhibition in vivo at 100 mg/kg [2, 5]: 63.7%
7 | COc1cc(/C=C(/C(=O)[O-])c2cc(OC)c(OC)c(OC)c2)cc(OC)c1F.[K+] [Compound 10] | 61.3 | 4.98 ± 0.72 |  | 
8 | COc1cc(/C(=C\c2cc(O)c(OC)c(O)c2)C(=O)O)cc(OC)c1OC [Compound 11, (E)-3-(3,5-dihydroxy-4-methoxyphenyl)-2-(3,4,5-trimethoxyphenyl)acrylic acid] |  |  | 5.735 ± 0.5952 | 
